US11154482B2, “Peptide, composition and method for anti-hair graying” (Renorigin Innovation Institute Co., Ltd., priority 2020, dated 2021)

Columns and labels:
DPPH assay = format: physicochemical; conditions: 50 μg/ml peptide, 0.2 mM DPPH, 16 h in the dark at room temperature, absorbance 515 nm
Procedure: 50 μg/ml peptide of SEQ ID NO: 1 was treated with 0.2 mM DPPH for 16 h. Data are represented as the means±SD from three independent experiments. ***p<0.001.
50 μg/ml peptide of SEQ ID NO: 1 was added in 96-well plates and incubated with 0.2 mM DPPH. Plates incubated in the dark for 16 hours at room temperature. After 16 h, the absorbance was measured at 515 nm using an automated plat reader (molecular devices).

[1] = system: B16F10 murine melanoma cells; assay: Prevention of hydrogen peroxide-induced oxidative stress injury (MTT cell viability assay); format: cell-based; conditions: 50 μg/ml peptide for 24 h, then 0.5 mM hydrogen peroxide for 2 h
Procedure: (§1) B16F10 murine melanoma cells (American Type Culture Collection, Manassas, Va., USA) were cultured in Dulbecco's modified Eagle's medium (DMEM) (Thermo Scientific, Barrington, Ill., USA) with 10% fetal bovine serum (FBS) (Gibco, Grand Island, N.Y., USA) and penicillin/streptomycin (100 IU/[…]) in a humidified atmosphere containing 5% CO2 at 37° C.
(§2) Cells (1×10^3) were seeded in 96-well plates. After treatment with hydrogen peroxide and peptide of SEQ ID NO: 1, MTT was added to a final concentration of 0.5 mg/ml and incubated for 4 h at 37° C. to allow MTT reduction. The formazan crystals were then dissolved in 10% sodium dodecyl sulfate (SDS) containing 0.01 N HCl and absorbance was measured at the dual wavelengths of 570 and 630 nm with a spectrophotometer (VersaMax; Molecular Devices, Silicon Valley, Calif., USA).
Cells were treated with 50 μg/ml peptide of SEQ ID NO: 1 for 24 h and then exposed to 0.5 mM hydrogen peroxide for 2 h.

[2] = system: B16F10 murine melanoma cells; assay: Protection against hydrogen peroxide-induced oxidative stress injury (MTT cell viability assay); format: cell-based; conditions: 30 μM hydrogen peroxide for 24 h, then 50 μg/ml peptide and hydrogen peroxide for 48 h
Procedure: as §1, §2
Cells were exposed to 30 μM hydrogen peroxide for 24 h and then treated with 50 μg/ml peptide of SEQ ID NO: 1 and hydrogen peroxide for 48 h.

Bleaching of hair = conditions: 7.5% hydrogen peroxide, 400 μg/ml peptide, 14 days
Procedure: FIG. 4 provides photographs of the hairs decolored with 7.5% hydrogen peroxide. Top panel, 7.5% hydrogen peroxide only; bottom panel, 7.5% hydrogen peroxide and incubated with 400 μg/ml peptide of the invention.
Hairs were treated with 7.5% hydrogen peroxide with or without peptide of SEQ ID NO: 1 for 14 days.

FKCRRWQWRMKKL [Peptide of SEQ ID NO: 1]
DPPH radical scavenging capacity (DPPH assay): significantly decreased DPPH radical scavenging capacity
hydrogen peroxide-induced stress injury (MTT assay), prevention [1]: attenuates hydrogen peroxide-induced stress injury
hydrogen peroxide-induced stress injury (MTT assay), protection [2]: attenuates hydrogen peroxide-induced stress injury
hair color after hydrogen peroxide immersion (Bleaching of hair): hair still had bright yellow
